The test addresses BTK (Homo sapiens, UniProt Q06187). In words: biochemical.
Where [1] appears, read: read-out: BTK inhibition (%), 0.75 uM BTK, […] probe 3l, 15 min preincubation.

This passage reports inhibition results from publication PMC8041284, “Tunable Methacrylamides for Covalent Ligand Directed Release Chemistry” (Journal of the American Chemical Society, 2021).

Read-outs that look alike come from different tables or passages of the source. Where a SMILES comes first, the peptide text is derived from it. [ ]: non-standard residue; d: D form. The star is where a group is joined. Dolaproine = CO[C@@H]([C@@H]1CCCN1)[C@@H](C)C(=O)O; Dil = CC[C@H](C)[C@H](NC)[C@@H](CC(=O)O)OC; X2 = C[C@@H](N*)[C@@H](O)c1ccccc1; NMeV = CN[C@H](C(=O)O)C(C)C

Sequence of BTK (Q06187 402-655 limits assumed): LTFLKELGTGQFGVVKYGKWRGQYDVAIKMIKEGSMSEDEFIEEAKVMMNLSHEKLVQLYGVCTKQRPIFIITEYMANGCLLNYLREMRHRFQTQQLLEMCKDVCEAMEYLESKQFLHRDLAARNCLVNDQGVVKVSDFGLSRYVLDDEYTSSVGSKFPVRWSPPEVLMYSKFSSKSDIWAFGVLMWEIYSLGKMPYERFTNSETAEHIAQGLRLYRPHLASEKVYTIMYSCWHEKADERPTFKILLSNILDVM

`CCS(=O)(=O)N1CCC(C(C)n2c(C)c(C(=O)NCc3c(OC)cc(C)[nH]c3=O)c3ccccc32)CC1` (stereo not shown) [PCM-0215486]: under setting [1], the inhibition at 10 µM was -3.1%. Same read-out and setting: for `CCOC(=O)C1=C(N)Oc2ccc(Cl)cc2C1C(C#N)C(=O)OCC` (stereo not shown) [PCM-0215487] the value was 40.9%.

For the compound `CCNC(=O)C#Cc1ccc2c(C(=Nc3ccc(CN(C)C)cc3)c3ccccc3)c(O)[nH]c2c1` [PCM-0215488], the inhibition at 10 µM under setting [1] worked out at 88.3%. For the compound `C=CC(=O)Nc1cc(Nc2nccc(-c3c[nH]c4ccccc34)n2)c(OC)cc1N(C)CCN(C)C` [PCM-0215489], under setting [1], the inhibition at 10 µM turned out to be 91.7%.

Consider `NC1=N[C@@](c2cccc(-c3cncnc3)c2)(c2ccnc(C(F)F)c2)c2cccc(F)c21` [PCM-0215490], for which the inhibition at 10 µM under setting [1] is -5.4%. For the compound `COc1cc(C(=O)N2CCC(N3CCN(C)CC3)CC2)ccc1Nc1ncc2c(n1)N(C)c1ccccc1C(=O)N2C` [PCM-0215491], the inhibition at 10 µM under setting [1] was determined as 2.8%.

With `NCCCC[C@@H]1NC(=O)[C@@H](Cc2ccc(O)cc2)NC(=O)[C@H](CC(=O)O)NC(=O)CNC(=O)[C@H](CCCN=C(N)N)NC1=O` [PCM-0215492], under setting [1], the inhibition at 10 µM was -10%.

Turning to `Cc1c(C(=O)Nc2ccc(Oc3ccnc4[nH]cc(-c5ccccc5)c34)c(F)c2)c(=O)n(-c2ccc(F)cc2)n1C` [PCM-0215493], the inhibition at 10 µM under setting [1] was found to be 95.9%.

Consider `COc1ccc(S(=O)(=O)N(CCO)c2ccccc2CN(C)C/C=C/c2ccc(Cl)cc2)cc1` [PCM-0215495], for which the inhibition at 10 µM under setting [1] was 70.3%. As to `O=C(N/N=C/c1cc(O)c(O)cc1O)c1cc2ccccc2cc1O` [PCM-0215496], the inhibition at 10 µM under setting [1] was 77.2%. On the same count and under the same terms, for `O=C(NOCCO)c1ccc2cncn2c1Nc1ccc(I)cc1F` [PCM-0215498] the value was 28.3%; for `CS(=O)(=O)c1ccc(-c2nnc(/C=C/c3nnc(-c4ccc(C#N)cc4)o3)n2-c2ccccc2Cl)nc1` [PCM-0215499], 0%; for `FC(F)(F)Oc1ccc2nc(-c3ccc(OCCOCCOc4ccc(-c5nc6ccc(OC(F)(F)F)cc6[nH]5)nc4)cn3)[nH]c2c1` [PCM-0215500], 32.4%. As to `N#Cc1ccc(-c2c(-c3ncn[nH]3)sc(N3CCOCC3)c2C#N)c(F)c1` [PCM-0215501], under setting [1], the inhibition at 10 µM worked out at 19.3%. Turning to `C[C@@H](Nc1cc(F)cc(F)c1)c1cc(C(=O)N(C)C)cc2c(=O)cc(N3CCOCC3)oc12` [PCM-0215502], the inhibition at 10 µM under setting [1] is -15.2%. In the case of `CCCC(=O)Nc1ncnc2c1ncn2[C@@H]1O[C@@H]2COP(=O)(O)O[C@H]2[C@H]1OC(=O)CCC` [PCM-0215503], the inhibition at 10 µM under setting [1] turned out to be 4.6%. Still for that read-out and setting: for `CC1(C)CC[C@]2(NC(=O)C(C)(F)F)CC[C@]3(C)[C@H](C(=O)C=C4[C@@]5(C)C=C(C#N)C(=O)C(C)(C)[C@@H]5CC[C@]43C)[C@@H]2C1` [PCM-0215505] the value was -10%; for `Nc1ncnc2c1nc(Br)n2[C@@H]1O[C@@H]2COP(=O)(O)O[C@H]2[C@H]1O` [PCM-0215506], 1.5%.

Turning to `NS(=O)(=O)NCCNc1nonc1C(=Nc1ccc(F)c(Br)c1)NO` [PCM-0215507], the inhibition at 10 µM under setting [1] is -3.1%.

In the case of `C=CC(=O)Nc1cccc(C)c1Nc1ncc2cc(-c3c(Cl)c(OC)cc(OC)c3Cl)ccc2n1` [PCM-0215508], the inhibition at 10 µM under setting [1] stood at 100%. Same read-out and setting: next, `CNC1CCC(N(Cc2cccc(-c3ccncc3)c2)C(=O)c2sc3ccccc3c2Cl)CC1` (stereo not shown) [PCM-0215509]: -8.5%; `CN1CCN(Cc2ccc(Nc3ncc(Cl)c(Nc4ccccc4S(=O)(=O)N(C)C)n3)cc2)CC1` [PCM-0215510]: 67.2%; `CNc1cc(-c2cccc(Cl)c2Cl)nc(N)n1` [PCM-0215511]: -13.1%. In the case of `CC(C)C[C@@H]1NC(=O)[C@@H](C(C)C)NC(=O)[C@@H]2CCCN2C(=O)[C@@H](CC(=O)O)NC(=O)[C@@H](Cc2c[nH]c3ccccc23)NC1=O` [PCM-0215512] (cyclo(L[dW][dD]P[dV])), under setting [1], the inhibition at 10 µM is -5.4%. Still for that read-out and setting: for `Cc1cc(C)c(CNC(=O)c2cc(-c3ccc(N4CCN(C)CC4)nc3)cc3c2c(C)cn3C(C)C)c(=O)[nH]1` [PCM-0215513] the value was -6.9%; for `O=c1[nH]c(=O)n([C@H]2C[C@H](O)[C@@H](CO)O2)cc1Br` [PCM-0215515], 3.9%. Still for that read-out and setting: next, `O=C(O)CC[C@@H](O)C(=O)O` [PCM-0215516]: -13.6%. Same read-out and setting: for `C[C@H](CCC(=O)NCCS(=O)(=O)O)[C@H]1CC[C@H]2[C@@H]3[C@@H](O)C[C@@H]4C[C@H](O)CC[C@]4(C)[C@H]3CC[C@]12C` [PCM-0215517] the value was 5.4%; for `Cc1nc(-c2cn3c(n2)-c2ccc(-c4cnn(C(C)(C)C(N)=O)c4)cc2OCC3)n(C(C)C)n1` [PCM-0215518], 0%; for `C=CC(=O)N1CCC[C@H](n2c(=O)n(-c3ccc(Oc4ccccc4)cc3)c3c(N)ncnc32)C1` [PCM-0215519], 97.2%.

For `O=C(NC1CC1)c1cc(-c2cccs2)on1` [PCM-0215520], the inhibition at 10 µM under setting [1] is -2.3%.

In the case of `CC[C@H](C)[C@@H]([C@@H](CC(=O)N1CCC[C@H]1[C@H](OC)[C@@H](C)C(=O)N[C@H](C)[C@@H](O)c1ccccc1)OC)N(C)C(=O)[C@@H](NC(=O)[C@@H](NC)C(C)C)C(C)C` [PCM-0215521] (H-[NMeV]V[Dil][Dolaproine]-X2), the inhibition at 10 µM (read-out: BTK inhibition (%)) was -3.9%. As to `CN(C)C(=S)NN=C(c1ccccn1)c1ccccn1` [PCM-0215522], the inhibition at 10 µM under setting [1] is 20.1%. The same measure, in the same setting: next, `COc1cccc(-c2ccc(NC(=O)C3=C(C(=O)O)CCC3)c(F)c2)c1` [PCM-0215523]: -75.9%.

In the case of `CCC[C@H](N[C@H]1CCc2cc(F)cc(F)c2C1)C(=O)Nc1cn(C(C)(C)CNCC(C)(C)C)cn1` [PCM-0215524], the inhibition at 10 µM under setting [1] is -3.9%. Still for that read-out and setting: next, `COc1nc(OCc2cccc(-c3ccccc3)c2C)ccc1CNCCNC(C)=O` [PCM-0215525]: -51.7%. Same read-out and setting: for `O=C(O)C(=O)c1cn(Cc2ccccc2)c2ccc(-c3ccc(OC(F)(F)F)cc3)cc12` [PCM-0215526] the value was 34%; for `CCC1C/C(=C\c2cccnc2)C(=O)/C(=C/c2cccnc2)C1` (stereo not shown) [PCM-0215528], 10%; for `C[C@@H]1COCCN1c1cc(C2([S@](C)(=N)=O)CC2)nc(-c2ccnc3[nH]ccc23)n1` [PCM-0215530], -4.1%. Same read-out and setting: for `O=[N+]([O-])c1ccc(S(=O)(=O)N2CCN(c3ccnc4cc(Cl)ccc34)CC2)c([N+](=O)[O-])c1` [PCM-0215531] the value was -12.4%; for `CCCCNc1ncc2c(-c3ccc(CN4CCN(C)CC4)cc3)cn(C3CCC(O)CC3)c2n1` (stereo not shown) [PCM-0215532], 55.9%.

Take `OC(CNc1ccccc1)Cn1c2ccc(Br)cc2c2cc(Br)ccc21` (stereo not shown) [PCM-0215533]: the inhibition at 10 µM under setting [1] worked out at 44.8%.

Take `Cc1ccccc1CN1C(=O)C2=C(CCN(Cc3ccccc3)C2)N2CCN=C12` [PCM-0215534]: the inhibition at 10 µM (read-out: BTK inhibition (%)) is -13.8%. For `O=c1[nH]c2ccccc2n1C1CCN(Cc2ccc(-c3[nH]c4cc5ncnc5cc4nc3-c3ccccc3)cc2)CC1` [PCM-0215535], the inhibition at 10 µM under setting [1] was found to be 18.6%.

On to `CC(=O)O/N=C1/C(c2c(O)[nH]c3cc(Br)ccc23)=Nc2ccccc21` [PCM-0215536], for which the inhibition at 10 µM under setting [1] was 60.7%. In the case of `Cc1cc(C)nc(SCC(=O)Nc2ncc(Cc3cccc4ccccc34)s2)n1` [PCM-0215537], under setting [1], the inhibition at 10 µM was 2.3%.

As a reminder, the inhibition is the drop in the measured response relative to a control, in per cent.
